Results as given in patent publication US9174984B2, “Chemical compounds” (GlaxoSmithKline Intellectual Property (No. 2) Limited, priority 2011, dated 2015).
pIC50: −log10 of the molar value.

molecular target: T1, Human DNMT3b/3L (Homo sapiens, UniProt Q9UBC3); experiment: DNMT inhibition assay (3H-SAM filter-binding) against DNMT3b/3L; assay type: biochemical; conditions: at least one experimental run or average of several runs; Examples 1-114 and 115-120 use different protocols; read-out: IC50 against DNMT 3b/3L
T1 construct: truncated 3b (catalytic domain)
Protocol: DNMT Assays Used for Examples 1-114
Human DNMT3b/3L was coexpressed using truncated 3b (catalytic domain) and 3L (DNA binding domain) at GSK. Human full-length DNMT1 enzyme purchased from BPS Biosciences. Poly(dIdC) DNA (Sigma) was used at 0.002 mg/mL. Tritiated SAM (Perkin Elmer) was used at 500 nM. DNA, DNMT enzyme, and inhibitors were mixed with assay buffer (20 mM Tris pH8, 5% glycerol, 1 mM EDTA, 100 μg/mL BSA, 1 mM DTT, 50 mM NaCl) and pre-incubated without SAM for 30 min. H3 SAM was then added to initiate the methylation reaction which continues at 37° C. for 1 h. Reaction mixture was then transferred to a filter plate (Millipore Multiscreen HTS DE), then washed with 50 mM H2PO4 and 95% Ethanol. Scintillation counts were measured on the Perkin Elmer Microbeta scintillation counter.
DNMT Assays Used for Examples 115-120
DNMT enzymes were produced by GlaxoSmithKline. Human DNMT3b/3L was coexpressed using truncated 3b (catalytic domain) and 3L (DNA binding domain). DNMT1 was human, full-length protein. 3H-SAM was purchased from Perkin Elmer. Custon DNA oligonucleotide substrates were purchased from Integrated DNA technologies.
28-mer DNA Oligonucleotide Duplex (for DNMT3b/3L)
DNMT enzyme was preincubated with compound for 1 hr at RT, after which SAM and DNA were added to initiate the methylation reaction. The methylation reaction was quenched after 20 min upon the addition of >100 fold excess non-radioactive SAM. The quenched reaction mixture (80%) was transferred to a DEAE filter binding plate (Millipore Multiscreen HTS DE), washed with 3 volumes of 50 mM phosphate buffer and dried. Scintillation cocktail (MicroScint-20) was added to the plate and radioactivity (3H-DNA) was measured using a Perkin Elmer TopCount scintillation counter.
Final reagent concentrations (prior to quench) consisted of the following:
DNMT3b/3L (10 nM), 200 nM DNA, 200 nM 3H-SAM in 20 mM Tris (pH 8), 1 mM DTT, 1 mM EDTA, 25 mM NaCl, 1 mM CHAPS and 2% DMSO.

Row | pIC50 | Structure (SMILES)
1 | ≥ 4.70 | CC#CC(=O)Nc1cccc(CN/C(=N\C#N)NCc2ccnc3[nH]ccc23)c1 [Example 14, (E)-N-(3-((3-((1H-Pyrrolo[2,3-b]pyridin-4-yl)methyl)-2-cyanoguanidino)methyl)phenyl)but-2-ynamide]
2 | ≥ 6.00 | O=C(C#Cc1ccccc1)Nc1cccc(CNC(=N[N+](=O)[O-])NCc2ccnc3[nH]ccc23)c1 [Example 24, N-(3-((3-((1H-pyrrolo[2,3-b]pyridin-4-yl)methyl)-2-nitroguanidino)methyl)phenyl)-3-phenylpropiolamide]
3 | ≥ 4.70 | C=CC(=O)Nc1ccc(C(F)(F)F)cc1CNC(=S)NCc1ccnc2[nH]ccc12 [Example 33, N-(2-((3-((1H-pyrrolo[2,3-b]pyridin-4-yl)methyl)thioureido)methyl)-4-(trifluoromethyl)phenyl)acrylamide]
4 | ≥ 4.70 | O=C(CCBr)Nc1cccc(CNC(=S)NCc2ccnc3[nH]ccc23)c1 [Example 36, N-(3-((3-((1H-pyrrolo[2,3-b]pyridin-4-yl)methyl)thioureido)methyl)phenyl)-3-bromopropanamide]
5 | ≥ 5.00 | C=CC(=O)Nc1ccccc1CNS(=O)(=O)NCc1ccnc2[nH]ccc12 [Example 39, N-(2-(((N-((1H-pyrrolo[2,3-b]pyridin-4-yl)methyl)sulfamoyl)amino)methyl)phenyl)acrylamide]
6 | ≥ 6.00 | O=C(C#Cc1ccccc1)NCCCNS(=O)(=O)NCc1ccnc2[nH]ccc12 [Example 49, N-(3-((N-((1H-pyrrolo[2,3-b]pyridin-4-yl)methyl)sulfamoyl)amino)propyl)-3-phenylpropiolamide]
7 | ≥ 5.00 | O=C(C#Cc1ccccc1)NCCNS(=O)(=O)NCc1ccnc2[nH]ccc12 [Example 50, N-(2-((N-((1H-pyrrolo[2,3-b]pyridin-4-yl)methyl)sulfamoyl)amino)ethyl)-3-phenylpropiolamide]
8 | 5.15 | Nc1cccc(CNC(=O)NCc2ccnc3[nH]cc(Cl)c23)c1 [Example 52, 1-(3-aminobenzyl)-3-((3-chloro-1H-pyrrolo[2,3-b]pyridin-4-yl)methyl)urea]
9 | ≥ 5.00 | C=CC(=O)Nc1ccc(F)c(CNC(=S)NCc2ccnc3[nH]ccc23)c1 [Example 74, N-(3-((3-((1H-pyrrolo[2,3-b]pyridin-4-yl)methyl)thioureido)methyl)-4-fluorophenyl)acrylamide]
10 | ≥ 6.00 | C=CC(=O)Nc1cc(CNC(=S)NCc2ccnc3[nH]ccc23)ccc1Cl [Example 76, N-(5-((3-((1H-pyrrolo[2,3-b]pyridin-4-yl)methyl)thioureido)methyl)-2-chlorophenyl)acrylamide]
11 | ≥ 6.00 | CC#CC(=O)Nc1cc(Cl)ccc1CNC(=S)NCc1ccnc2[nH]ccc12 [Example 82, N-(2-((3-((1H-pyrrolo[2,3-b]pyridin-4-yl)methyl)thioureido)methyl)-5-chlorophenyl)but-2-ynamide]
12 | ≥ 5.00 | S=C(NCc1ccccc1-c1nccs1)NCc1ccnc2[nH]ccc12 [Example 111, 1-((1H-Pyrrolo[2,3-b]pyridin-4-yl)methyl)-3-(2-(thiazol-2-yl)benzyl)thiourea]
13 | ≥ 4.70 | NCC(=O)Nc1cccc(CNC(=S)NCc2ccnc3[nH]ccc23)c1 [Example 112, N-(3-((3-((1H-Pyrrolo[2,3-b]pyridin-4-yl)methyl)thioureido)methyl)phenyl)-2-aminoacetamide]
14 | ≥ 6.00 | S=C(NCc1ccccc1-c1cocn1)NCc1ccnc2[nH]ccc12 [Example 115, 1-((1H-pyrrolo[2,3-b]pyridin-4-yl)methyl)-3-(2-(oxazol-4-yl)benzyl)thiourea]

same assay, conditions: read-out: IC50 against DNMT 3b/3L

Row | Structure (SMILES) | pIC50
15 | O=C(C#Cc1ccccc1)Nc1cccc(CNC(=O)NCc2ccnc3[nH]ccc23)c1 [Example 1, N-(3-((3-((1H-Pyrrolo[2,3-b]pyridin-4-yl)methyl)ureido)methyl)phenyl)-3-phenylpropiolamide] | ≥ 6.00
16 | CC#CC(=O)Nc1cccc(CNC(=O)NCc2ccnc3[nH]ccc23)c1 [Example 3, N-(3-((3-((1H-Pyrrolo[2,3-b]pyridin-4-yl)methyl)ureido)methyl)phenyl)but-2-ynamide] | ≥ 6.00
17 | NCc1cccc(NC(=S)NCc2ccnc3[nH]ccc23)c1 [Example 9, 1-((1H-Pyrrolo[2,3-b]pyridin-4-yl)methyl)-3-(3-(aminomethyl)phenyl)thiourea] | ≥ 4.70
18 | COc1ccc(C#CC(=O)NCCNC(=S)NCc2ccnc3[nH]ccc23)cc1 [Example 11, N-(2-(3-((1H-Pyrrolo[2,3-b]pyridin-4-yl)methyl)thioureido)ethyl)-3-(4-methoxyphenyl)propiolamide] | ≥ 5.00
19 | N#C/N=C(\NCCNC(=O)C#Cc1ccccc1)NCc1ccnc2[nH]ccc12 [Example 15, (Z)—N-(2-(3-((1H-Pyrrolo[2,3-b]pyridin-4-yl)methyl)-2-cyanoguanidino)ethyl)-3-phenylpropiolamide] | ≥ 5.00
20 | O=C(C#Cc1ccccc1)NCCCNC(=O)NCc1ccnc2[nH]ccc12 [Example 17, N-(3-(3-((1H-pyrrolo[2,3-b]pyridin-4-yl)methyl)ureido)propyl)-3-phenylpropiolamide] | ≥ 5.00
21 | O=C(C#Cc1ccccc1)NCCCC(=O)NCc1ccnc2[nH]ccc12 [Example 18, N-((1H-pyrrolo[2,3-b]pyridin-4-yl)methyl)-4-(3-phenylpropiolamido)butanamide] | ≥ 6.00
22 | O=C(C#Cc1ccccc1)Nc1cccc(CCC(=O)NCc2ccnc3[nH]ccc23)c1 [Example 19, N-(3-(3-(((1H-pyrrolo[2,3-b]pyridin-4-yl)methyl)amino)-3-oxopropyl)phenyl)-3-phenylpropiolamide] | ≥ 6.00
23 | CN(CCNC(=O)NCc1ccnc2[nH]ccc12)C(=O)C#Cc1ccccc1 [Example 20, N-(2-(3-((1H-pyrrolo[2,3-b]pyridin-4-yl)methyl)ureido)ethyl)-N-methyl-3-phenylpropiolamide] | ≥ 5.00
24 | O=C(C#Cc1ccccc1)NCc1ccccc1CNC(=O)NCc1ccnc2[nH]ccc12 [Example 21, N-(2-((3-((1H-pyrrolo[2,3-b]pyridin-4-yl)methyl)ureido)methyl)benzyl)-3-phenylpropiolamide] | ≥ 6.00
25 | O=C(C#Cc1ccccc1)N1CCCC(CNS(=O)(=O)NCc2ccnc3[nH]ccc23)C1 (stereo not drawn) [Example 48, 1-((1H-pyrrolo[2,3-b]pyridin-4-yl)methyl)-3-((1-(3-phenylpropioloyl)piperidin-3-yl)methyl)sulfuric diamide] | ≥ 6.00
26 | O=C(C#Cc1ccccc1)Nc1cccc(CNC(=O)NCc2ccnc3[nH]cc(Cl)c23)c1 [Example 53, N-(3-((3-((3-chloro-1H-pyrrolo[2,3-b]pyridin-4-yl)methyl)ureido)methyl)phenyl)-3-phenylpropiolamide] | ≥ 6.00
27 | O=C(C#Cc1ccccc1)NCc1ccccc1CNS(=O)(=O)NCc1ccnc2[nH]ccc12 [Example 55, N-(2-(((N-((1H-pyrrolo[2,3-b]pyridin-4-yl)methyl)sulfamoyl)amino)methyl)benzyl)-3-phenylpropiolamide] | ≥ 6.00
28 | O=C(C#Cc1ccccc1)NCc1ccccc1CNC(=S)NCc1ccnc2[nH]ccc12 [Example 56, N-(2-((3-((1H-pyrrolo[2,3-b]pyridin-4-yl)methyl)thioureido)methyl)benzyl)-3-phenylpropiolamide] | ≥ 6.00
29 | O=C(NCc1ccnc2[nH]ccc12)NC1CN(C(=O)C#Cc2ccccc2)C1 [Example 57, 1-((1H-pyrrolo[2,3-b]pyridin-4-yl)methyl)-3-(1-(3-phenylpropioloyl)azetidin-3-yl)urea] | ≥ 6.00
30 | O=C(NCc1ccnc2[nH]ccc12)NC1CCN(C(=O)C#Cc2ccccc2)C1 (stereo not drawn) [Example 58, 1-((1H-pyrrolo[2,3-b]pyridin-4-yl)methyl)-3-(1-(3-phenylpropioloyl)pyrrolidin-3-yl)urea] | ≥ 6.00
31 | O=C(C#Cc1ccccc1)Nc1cccc(CNC(=O)NCc2ccnc3[nH]cc(F)c23)c1 [Example 62, N-(3-((3-((3-fluoro-1H-pyrrolo[2,3-b]pyridin-4-yl)methyl)ureido)methyl)phenyl)-3-phenylpropiolamide] | ≥ 6.00
32 | O=C(C#Cc1ccccc1)Nc1cccc(CNC(=O)NCc2ccnc3[nH]cc(Br)c23)c1 [Example 63, N-(3-((3-((3-bromo-1H-pyrrolo[2,3-b]pyridin-4-yl)methyl)ureido)methyl)phenyl)-3-phenylpropiolamide] | ≥ 6.00
33 | O=C(NCc1ccnc2[nH]cc(Cl)c12)NC1CCN(C(=O)C#Cc2ccccc2)C1 (stereo not drawn) [Example 64, 1-((3-chloro-1H-pyrrolo[2,3-b]pyridin-4-yl)methyl)-3-(1-(3-phenylpropioloyl)pyrrolidin-3-yl)urea] | ≥ 5.00
